Data on seven compounds can be found in PubChem BioAssay (NCI).

Some test systems named below: PC-3 prostate; SN12C renal; NCI-H226 lung; 786-0 renal; IGROV1 ovarian; HCT-116 colon; HCT-15 colon; MDA-MB-435; HOP-92 NSCLC; OVCAR-3 ovarian.
Common to all, as to experiment: inhibition of tumour cell growth, NCI panel, 48 h

SMILES strings stand for the structures. Values joined by “and” are separate entries in the source; they are usually repeats but may differ in a detail not shown here. Equal entries are not always repeated.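 Each compound was tested at five concentrations against cells in 96-well plates for 48 hours. The concentration for 50% growth inhibition is given as GI50. TGI: concentration producing complete growth inhibition.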

As for `C/C(=N\NC(=O)c1ccccc1O)c1cccc(/C(C)=N/NC(=O)c2ccccc2O)n1`, the GI50 in the assay with PC-3 prostate was 0.626 µM; in the assay with SN12C renal it was 0.731 µM; in the assay on NCI-H226 lung it was 5.8 µM and 3.79 µM; in the assay on 786-0 renal it was 0.616 µM; in the assay on IGROV1 ovarian it was 2.4 µM and 15.4 µM; in the assay with HCT-116 colon it was 5.85 µM and 0.619 µM. In addition, the GI50 in the assay with HCT-15 colon is 0.568 µM; in the assay with MDA-MB-435 it was 0.767 µM; with HOP-92 NSCLC, 0.908 µM; with OVCAR-3 ovarian, 1.06 µM and 0.362 µM. Moreover, the TGI in the assay on PC-3 prostate was greater than 100 µM; in the assay with SN12C renal it was greater than 100 µM; with NCI-H226 lung, greater than 100 µM; with 786-0 renal it was 45.6 µM and 18.4 µM; in the assay with IGROV1 ovarian, 43.8 µM and > 100 µM; in the assay on HCT-116 colon, 66.9 µM and 28.4 µM. Further, the TGI in the assay on HCT-15 colon was greater than 100 µM; with MDA-MB-435, greater than 100 µM; in the assay on HOP-92 NSCLC, 67.3 µM and 36.8 µM; in the assay with OVCAR-3 ovarian it was 24.3 µM and > 53.5 µM.

As for `O=C1c2ccccc2-c2n[nH]c3cccc1c23`, the GI50 in the assay on PC-3 prostate is 17.8 µM; in the assay with SN12C renal it was 20.8 µM; in the assay with NCI-H226 lung it was 10.3 µM; in the assay on 786-0 renal it was 11.9 µM; in the assay with IGROV1 ovarian it was 9.32 µM; with HCT-116 colon, 6.15 µM. The GI50 with HCT-15 colon is 6.66 µM; in the assay on MDA-MB-435, 15.8 µM; with HOP-92 NSCLC, 23.7 µM; in the assay on OVCAR-3 ovarian it was 23.8 µM. Moreover, the TGI was greater than 100 µM with PC-3 prostate; greater than 100 µM in the assay on SN12C renal; > 100 µM and 78.4 µM in the assay on NCI-H226 lung; greater than 100 µM in the assay with 786-0 renal; > 100 µM and 99.1 µM in the assay on IGROV1 ovarian; greater than 100 µM with HCT-116 colon. In addition, the TGI is greater than 100 µM with HCT-15 colon; greater than 100 µM in the assay with MDA-MB-435; greater than 100 µM in the assay on HOP-92 NSCLC; 92.1 µM and > 100 µM with OVCAR-3 ovarian.

As to `O=C(O)C[O][Sb][O]CC(=O)O`, the GI50 in the assay with PC-3 prostate, in the assay on SN12C renal, with NCI-H226 lung, with 786-0 renal, with IGROV1 ovarian and in the assay with HCT-116 colon was greater than 100 µM throughout. The GI50 with HCT-15 colon, in the assay on MDA-MB-435, in the assay on HOP-92 NSCLC and in the assay on OVCAR-3 ovarian was greater than 100 µM each time. Moreover, the TGI with PC-3 prostate, with SN12C renal, in the assay on NCI-H226 lung, in the assay with 786-0 renal, in the assay on IGROV1 ovarian and with HCT-116 colon was greater than 100 µM each time. Further, the TGI in the assay with HCT-15 colon, in the assay on MDA-MB-435, in the assay with HOP-92 NSCLC and with OVCAR-3 ovarian was greater than 100 µM throughout.

Regarding `C/C1=C\C/C=C(\C)[C@H]2CC(CC/C(C)=C/CC1)[C@@](C)(CO)O2`, the GI50 was 68.5 µM in the assay with PC-3 prostate; 16.3 µM with SN12C renal; greater than 100 µM in the assay on NCI-H226 lung; greater than 100 µM with 786-0 renal; 16 µM in the assay on IGROV1 ovarian; 44.5 µM with HCT-116 colon. Also, the GI50 in the assay on HCT-15 colon is greater than 100 µM; in the assay on MDA-MB-435 it was greater than 100 µM; with HOP-92 NSCLC, 36.3 µM; in the assay on OVCAR-3 ovarian, greater than 100 µM. The TGI is greater than 100 µM in the assay with PC-3 prostate; greater than 100 µM with SN12C renal; greater than 100 µM in the assay on NCI-H226 lung; greater than 100 µM in the assay on 786-0 renal; 56.5 µM in the assay with IGROV1 ovarian; greater than 100 µM in the assay with HCT-116 colon. The TGI in the assay on HCT-15 colon, in the assay with MDA-MB-435, in the assay on HOP-92 NSCLC and in the assay on OVCAR-3 ovarian was greater than 100 µM throughout.

With `CC(=O)OC1CCC2(C)C(CCC3C4CC=C(C(C)=O)C4(C)OC(=O)CC32)C1` (configuration not stated), the GI50 in the assay with PC-3 prostate was 4.56 µM; in the assay on SN12C renal, 3.26 µM; in the assay with NCI-H226 lung it was 1.95 µM; with 786-0 renal, 2.52 µM; in the assay on IGROV1 ovarian, 2.88 µM; with HCT-116 colon, 1.13 µM. The GI50 in the assay with HCT-15 colon was 1.13 µM; with MDA-MB-435 it was 1.71 µM; in the assay on HOP-92 NSCLC, 1.74 µM; with OVCAR-3 ovarian, 1.63 µM. In addition, the TGI in the assay on PC-3 prostate was 16.7 µM; in the assay on SN12C renal it was 13.6 µM; with NCI-H226 lung it was 4.32 µM; with 786-0 renal, 6.59 µM; in the assay on IGROV1 ovarian it was 10.3 µM; in the assay with HCT-116 colon it was 2.62 µM. The TGI in the assay on HCT-15 colon was found to be 2.61 µM; in the assay with MDA-MB-435 it was 4.66 µM; in the assay on HOP-92 NSCLC, 4.21 µM; with OVCAR-3 ovarian, 3.04 µM.

`N#CSCc1c(Cl)cccc1Cl`: the GI50 was 8.73 µM in the assay with PC-3 prostate; 4.5 µM in the assay with SN12C renal; 12.6 µM with NCI-H226 lung; 5.57 µM in the assay with 786-0 renal; 2.69 µM in the assay on IGROV1 ovarian; 2.92 µM with HCT-116 colon. Also, the GI50 with HCT-15 colon was 2.96 µM; with MDA-MB-435, 2.11 µM; in the assay with HOP-92 NSCLC, 1.18 µM; in the assay on OVCAR-3 ovarian, 2.39 µM. For the same compound, the TGI in the assay on PC-3 prostate is greater than 100 µM; in the assay on SN12C renal, greater than 100 µM; with NCI-H226 lung it was greater than 100 µM; in the assay with 786-0 renal, greater than 100 µM; in the assay with IGROV1 ovarian it was 7.2 µM; with HCT-116 colon, greater than 39.3 µM. Further, the TGI is greater than 100 µM in the assay on HCT-15 colon, 5.63 µM in the assay with MDA-MB-435, greater than 30 µM in the assay on HOP-92 NSCLC and 5.18 µM in the assay on OVCAR-3 ovarian.

With `CC1(C)CC(=O)c2c(ccc(C(=O)C[C@H](N)CO)c2N)O1`, the GI50 in the assay on PC-3 prostate is 10.6 µM and 5.7 µM; in the assay with 786-0 renal it was > 17.5 µM and 5.1 µM; with IGROV1 ovarian, 3.09 µM; with HCT-116 colon, 1.36 µM and 2.01 µM; in the assay with HCT-15 colon, 0.768 µM and 0.114 µM; with MDA-MB-435, 15.3 µM and 4.47 µM. Also, the GI50 in the assay on HOP-92 NSCLC is 7.04 µM. Besides, the TGI is 17.5 µM and > 33.3 µM in the assay on PC-3 prostate; 17.5 µM and > 33.3 µM in the assay with SN12C renal; 17.5 µM and 23.7 µM with NCI-H226 lung; greater than 33.3 µM in the assay with 786-0 renal; 17.5 µM with IGROV1 ovarian; 17.5 µM and > 33.3 µM in the assay with HCT-116 colon. In addition, the TGI was 17.5 µM and 9.09 µM with HCT-15 colon; 17.5 µM and > 33.3 µM in the assay on MDA-MB-435; 17.5 µM with HOP-92 NSCLC; 17.5 µM and > 33.3 µM with OVCAR-3 ovarian.
